Data: PubChem BioAssay (NCI)
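Values below derive from 48-hour exposures of cells grown in 96-well plates, with endpoints linearly interpolated between the two concentrations bracketing the appropriate inhibition level. TGI denotes the concentration required for complete inhibition of growth.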

Key:
Experiment in all cases: NCI tumour cell line growth inhibition, 48 h
MDA-MB-435 = tested on: MDA-MB-435
SF-268 CNS = tested on: SF-268 CNS
SNB-75 CNS = tested on: SNB-75 CNS
SF-295 CNS = tested on: SF-295 CNS
NCI-H226 lung = tested on: NCI-H226 lung
HT29 colon = tested on: HT29 colon
COLO 205 colon = tested on: COLO 205 colon
ACHN renal = tested on: ACHN renal
SR leukemia = tested on: SR leukemia
EKVX NSCLC = tested on: EKVX NSCLC
RXF 393 renal = tested on: RXF 393 renal
HCT-116 colon = tested on: HCT-116 colon
LOX IMVI melanoma = tested on: LOX IMVI melanoma
SK-MEL-28 melanoma = tested on: SK-MEL-28 melanoma
786-0 renal = tested on: 786-0 renal
OVCAR-3 ovarian = tested on: OVCAR-3 ovarian
CAKI-1 renal = tested on: CAKI-1 renal
UO-31 renal = tested on: UO-31 renal
T-47D breast = tested on: T-47D breast
HCC-2998 colon = tested on: HCC-2998 colon

SMILES	TGI (MDA-MB-435) [µM]	TGI (SF-268 CNS) [µM]	TGI (SNB-75 CNS) [µM]	TGI (SF-295 CNS) [µM]	TGI (NCI-H226 lung) [µM]	TGI (HT29 colon) [µM]	TGI (COLO 205 colon) [µM]	TGI (ACHN renal) [µM]	TGI (SR leukemia) [µM]	TGI (EKVX NSCLC) [µM]	TGI (RXF 393 renal) [µM]	TGI (HCT-116 colon) [µM]	TGI (LOX IMVI melanoma) [µM]	TGI (SK-MEL-28 melanoma) [µM]	TGI (786-0 renal) [µM]	TGI (OVCAR-3 ovarian) [µM]	TGI (CAKI-1 renal) [µM]	TGI (UO-31 renal) [µM]	TGI (T-47D breast) [µM]	TGI (HCC-2998 colon) [µM]
O=C(CN1CCOCC1)c1ccc2c(c1)oc(=O)n2CCN1CCCC1	> 100	> 100	> 100	> 100	> 100	> 100	> 100	> 100	> 100	> 100	> 100	> 100	> 100	> 100	> 100	> 100	> 100			
COc1ccc(/C=C/C(=O)CC(=O)/C=C/c2ccc(OC)cc2)cc1	> 100	> 100	> 100	> 100	> 100	> 100	> 100			> 100	80	34.5	25.1	> 100	89.1	75.5	> 100	> 100	> 100	> 100
CC(C)(C)OC(=O)c1ccc(NCC2=CC(=O)C=CC2=O)cc1	25.9	24.3	24.3	50.5	40.5	35	7.21	22.2	> 23.1	28.8	23.6	26.2	22.6	29.2	22	16.1	3.39	19.7		36.6
CCN(CC)CCCNc1nc(=O)[nH]c(C)c1C(=O)Nc1ccc2c(c1)c1ccccc1n2CC	> 100		> 100	> 100	> 100	> 100	> 100	> 100		> 100	> 100	> 100	> 100	> 100	> 100	> 100	> 100	> 100	> 100	> 100
N#Cc1nc(-c2ccccn2)oc1N	> 100	> 100		> 100	> 100	> 100	> 100	> 100	> 100	> 100	> 100	> 100	> 100	> 100	> 100	> 100	> 100	> 100		> 100
COC(=O)c1ccccc1/C=C1\Cc2c(C)cc(C)cc2C1=O		> 100	> 100	> 100	> 100	> 100		> 100	> 100	> 100	> 100	> 100	> 100	> 100	> 100	> 100	> 100	> 100	> 100	> 100
CO[C@@H]1C[C@H]2N3CC[C@@]2(c2cc4c(cc2C3)OCO4)[C@H]2O[C@@H]12	> 100	> 100	> 100	> 100	4.59	> 100	2.24	> 100		> 100	> 100	> 100	> 100	> 100	> 100	> 100	> 100	> 100		> 100
Fc1cccc(Cl)c1C1SCc2nc3cc4ccccc4cc3n21 (configuration not stated)	> 100	> 100		> 100	> 100	> 100	> 100	> 100	> 100	> 100	> 100	> 100	> 100	> 100	> 100	> 100	> 100		> 100	> 100
COc1cc(Nc2nnc3n2S(=O)(=O)c2cc(C)c(Cl)cc2S3)cc(OC)c1	> 100	50.7		68.7	55.1	> 100	> 100	16.7		> 100	49.3	> 100		> 100	20.5	28.2	79	> 100	44.5	> 100
Cc1ccc(/C=C2\CCCC(CN(C)C)C2=O)cc1 (configuration not stated)	3.74		20.3	31.2	6.82	3.07	3.13	7.19		31.5	3.34	3.1	3.38	3.9	3.23	3.22	2.88	3.12	3.25	27.4
CN(C)S(=O)(=O)n1cnc(CO)c1	> 100	> 100	> 100	> 100	> 100		> 100	> 100		> 100	> 100	> 100	> 100	> 100	> 100	> 100	> 100	> 100	> 100	> 100
CCN(CC)c1ccc2cc(-c3nnc(-c4ccccc4O)o3)c(=O)oc2c1	32.7	28.3		29.7		26.3	33.6	24.2	33.7	43.4		21.9	20.1	32.3	21.9	21.1	25.3	22.7		72.6
NC(Cc1ccc(S(=O)(=O)O)cc1)C(=O)NC(Cc1ccc(S(=O)(=O)O)cc1)C(=O)NC(Cc1ccc(S(=O)(=O)O)cc1)C(=O)O (configuration not stated)	> 100	> 100	> 100	> 100	> 100	> 100	> 100	> 100		> 100	> 100	> 100	> 100	> 100	> 100	> 100	> 100	> 100	> 100	> 100
